# Measured values taken from PubChem BioAssay AID184 (DTP/NCI, 2004).
# Several values for one entry are separate records, joined by “and”; a condition that tells them apart may be missing. Equal values may be shown once. Inconclusive results and toxic doses are left out. Starred links: 1 amine or outer side, 2 acyl side, 3 side chain; linkers in the order of their positions; H or OH if unused. Positions of bridges follow the written chain, without caps; N, C: chain ends. Non-standard residues stand in square brackets, D forms with d. Residues, ends and D or L forms follow the SMILES beside them. Chains are numbered I, II in the order given. Actinocin(9to1) = Cc1c2oc3c(C)ccc(C(=O)[*:1])c3nc-2c(C(=O)[*:2])c(N)c1=O; aThr = C[C@H](O)[C@H](N)C(=O)O; NMeV = CN[C@H](C(=O)O)C(C)C; Sar = CNCC(=O)O
# System: BALB/cJ mice, ADJ-PC-6 ip tumor, median survival T/C
# Assay: NCI In Vivo Anticancer Drug Screen. Data for tumor model ADJ-PC-6 (intraperitoneal) in BALB/cJ mice
# Conditions: endpoint: median survival time, higher = longer survival
# Protocol: The antitumor activity of compounds was measured in mice bearing transplantable tumors. Survival or tumor size were measured and the results are expressed as the measurement made in the treated group (T) divided by the measurement made in the vehicle treated control group (C). The tumor model used in this assay is ADJ-PC-6 (intraperitoneal) in BALB/cJ mice
# [1] = dose: 20.0 mg/kg/injection, schedule: Q01DX009 (ip), vehicle: water
# [2] = dose: 40.0 mg/kg/injection, schedule: Q01DX009 (ip), vehicle: water
# [3] = dose: 80.0 mg/kg/injection, schedule: Q01DX009 (ip), vehicle: water
# [4] = dose: 160.0 mg/kg/injection, schedule: Q01DX009 (ip), vehicle: water
# [5] = dose: 5.0 mg/kg/injection, schedule: Q04DX003 (ip), vehicle: saline
# [6] = dose: 10.0 mg/kg/injection, schedule: Q04DX003 (ip), vehicle: saline
# [7] = dose: 20.0 mg/kg/injection, schedule: Q04DX003 (ip), vehicle: saline
# [8] = dose: 40.0 mg/kg/injection, schedule: Q04DX003 (ip), vehicle: saline
# [9] = dose: 80.0 mg/kg/injection, schedule: Q04DX003 (ip), vehicle: saline
# [10] = dose: 5.0 mg/kg/injection, schedule: Q04DX003 (ip), vehicle: other
# [11] = dose: 10.0 mg/kg/injection, schedule: Q04DX003 (ip), vehicle: other
compound,measurement,setting,value
[Cl][Pt+2][Cl].[NH-]C1CCCC1.[NH2-],T/C,"dose: 1.04 mg/kg/injection, schedule: Q04DX003 (ip), vehicle: saline",204 % of control
same,T/C,"dose: 1.73 mg/kg/injection, schedule: Q04DX003 (ip), vehicle: saline",254 % of control
same,T/C,"dose: 2.88 mg/kg/injection, schedule: Q04DX003 (ip), vehicle: saline",385 % of control
same,T/C,"dose: 4.8 mg/kg/injection, schedule: Q04DX003 (ip), vehicle: saline",445 % of control
same,T/C,"dose: 8.0 mg/kg/injection, schedule: Q04DX003 (ip), vehicle: saline",451 % of control
O=C1NC(=O)C2C3C=CC(C12)C1C2C(=O)NC(=O)C2C31 (stereo unspecified),T/C,"dose: 5.0 mg/kg/injection, schedule: Q01DX009 (ip), vehicle: saline with Tween-80",110 % of control
same,T/C,"dose: 10.0 mg/kg/injection, schedule: Q01DX009 (ip), vehicle: saline with Tween-80",88 % of control and 103 % of control
same,T/C,"dose: 80.0 mg/kg/injection, schedule: Q01DX009 (ip), vehicle: saline with Tween-80",235 % of control
CCN(CC)CCOC(=O)c1ccc(NCN2C(=O)CCC2=O)cc1,T/C,"dose: 10.0 mg/kg/injection, schedule: Q01DX009 (ip), vehicle: water",110 % of control
same,T/C,[1],96 % of control
same,T/C,[2],98 % of control
same,T/C,[3],105 % of control
same,T/C,[4],92 % of control
COc1cccc2c1C(=O)c1c(O)c3c(c(O)c1C2=O)C[C@@](O)(C(=O)CO)C[C@@H]3OC1CC(N)C(O)C(C)O1 (stereo partly specified),T/C,"dose: 0.5 mg/kg/injection, schedule: Q04DX003 (iv), vehicle: saline",103 % of control
same,T/C,"dose: 1.0 mg/kg/injection, schedule: Q04DX003 (iv), vehicle: saline",92 % of control
same,T/C,"dose: 2.0 mg/kg/injection, schedule: Q04DX003 (iv), vehicle: saline",97 % of control
same,T/C,"dose: 4.0 mg/kg/injection, schedule: Q04DX003 (iv), vehicle: saline",95 % of control
same,T/C,"dose: 8.0 mg/kg/injection, schedule: Q04DX003 (iv), vehicle: saline",168 % of control and 225 % of control
COc1cc([C@@H]2c3cc4c(cc3[C@@H](OC3OC5COC(C)OC5C(O)C3O)[C@H]3COC(=O)[C@H]23)OCO4)cc(OC)c1O (stereo partly specified),T/C,[5],201 % of control
same,T/C,"dose: 6.25 mg/kg/injection, schedule: Q04DX003 (ip), vehicle: saline with Tween-80",224 % of control
same,T/C,[6],337 % of control
same,T/C,"dose: 12.5 mg/kg/injection, schedule: Q04DX003 (ip), vehicle: saline with Tween-80",247 % of control
same,T/C,[7],355 % of control
same,T/C,"dose: 25.0 mg/kg/injection, schedule: Q04DX003 (ip), vehicle: saline with Tween-80",337 % of control
same,T/C,[8],355 % of control
same,T/C,"dose: 50.0 mg/kg/injection, schedule: Q04DX003 (ip), vehicle: saline with Tween-80",337 % of control
same,T/C,[9],355 % of control
same,T/C,"dose: 100.0 mg/kg/injection, schedule: Q04DX003 (ip), vehicle: saline with Tween-80",337 % of control
CC[C@](O)(C(=O)O)c1cc2n(c(=O)c1CO)Cc1cc3ccccc3nc1-2,T/C,"dose: 3.75 mg/kg/injection, schedule: Q04DX003 (ip), vehicle: saline",111 % of control
same,T/C,"dose: 7.5 mg/kg/injection, schedule: Q04DX003 (ip), vehicle: saline",120 % of control
same,T/C,[6],158 % of control
same,T/C,"dose: 15.0 mg/kg/injection, schedule: Q04DX003 (ip), vehicle: saline",115 % of control
same,T/C,[7],185 % of control
same,T/C,"dose: 30.0 mg/kg/injection, schedule: Q04DX003 (ip), vehicle: saline",158 % of control
same,T/C,[8],174 % of control
same,T/C,"dose: 60.0 mg/kg/injection, schedule: Q04DX003 (ip), vehicle: saline",188 % of control
same,T/C,[9],196 % of control
"Cc1c2oc3c(C)ccc(C(=O)N[C@@H]4C(=O)N[C@H](C(C)C)C(=O)N5CCC[C@H]5C(=O)N(C)CC(=O)N(C)[C@@H](C(C)C)C(=O)O[C@H]4C)c3nc-2c(C(=O)N[C@@H]2C(=O)N[C@H](C(C)C)C(=O)N3CCC[C@H]3C(=O)N(C)CC(=O)N(C)[C@@H](C(C)C)C(=O)O[C@H]2C)c(N)c1=O (I: [aThr][dV]P[Sar][NMeV] / II: [aThr][dV]P[Sar][NMeV]; ester I:1-I:C, II:1-II:C; linker I:N-II:N via Actinocin(9to1))",T/C,"dose: 0.04 mg/kg/injection, schedule: Q04DX003 (ip), vehicle: saline + alcohol",115 % of control
same,T/C,"dose: 0.08 mg/kg/injection, schedule: Q04DX003 (ip), vehicle: saline + alcohol",115 % of control
same,T/C,"dose: 0.3 mg/kg/injection, schedule: Q04DX003 (ip), vehicle: saline + alcohol",156 % of control
same,T/C,"dose: 0.6 mg/kg/injection, schedule: Q04DX003 (ip), vehicle: saline + alcohol",189 % of control and 197 % of control
same,T/C,"dose: 37.5 micrograms/kg/injection, schedule: Q04DX003 (ip), vehicle: saline + alcohol",94 % of control
same,T/C,"dose: 75.0 micrograms/kg/injection, schedule: Q04DX003 (ip), vehicle: saline + alcohol",103 % of control
same,T/C,"dose: 150.0 micrograms/kg/injection, schedule: Q04DX003 (ip), vehicle: saline + alcohol",97 % of control
same,T/C,"dose: 300.0 micrograms/kg/injection, schedule: Q04DX003 (ip), vehicle: saline + alcohol",90 % of control
CO[C@@]12[C@H](COC(N)=O)C3=C(C(=O)C(C)=C(N)C3=O)N1C[C@@H]1N[C@@H]12,T/C,"dose: 1.5 mg/kg/injection, schedule: Q04DX003 (ip), vehicle: saline",239 % of control
same,T/C,"dose: 3.0 mg/kg/injection, schedule: Q04DX003 (ip), vehicle: saline",335 % of control
CN(C)CNC(=O)c1ccccc1,T/C,[1],102 % of control
same,T/C,[2],102 % of control
same,T/C,[3],115 % of control
same,T/C,[4],107 % of control
CC1CCC(NC(=O)N(CCCl)N=O)CC1 (stereo unspecified),T/C,"dose: 1.25 mg/kg/injection, schedule: Q04DX003 (ip), vehicle: other",120 % of control
same,T/C,"dose: 2.5 mg/kg/injection, schedule: Q04DX003 (ip), vehicle: other",182 % of control and 183 % of control
same,T/C,[10],158 % of control and 355 % of control
same,T/C,[11],337 % of control and 355 % of control
same,T/C,"dose: 20.0 mg/kg/injection, schedule: Q04DX003 (ip), vehicle: other",272 % of control and 297 % of control
CN(Cc1cnc2nc(N)nc(N)c2n1)c1ccc(C(=O)N[C@@H](CCC(=O)O)C(=O)O)cc1,T/C,"dose: 1.25 mg/kg/injection, schedule: Q04DX003 (ip), vehicle: sodium bicarbonate",97 % of control
same,T/C,"dose: 2.5 mg/kg/injection, schedule: Q04DX003 (ip), vehicle: sodium bicarbonate",110 % of control
same,T/C,"dose: 5.0 mg/kg/injection, schedule: Q04DX003 (ip), vehicle: sodium bicarbonate",104 % of control and 111 % of control
same,T/C,"dose: 10.0 mg/kg/injection, schedule: Q04DX003 (ip), vehicle: sodium bicarbonate",124 % of control
same,T/C,"dose: 20.0 mg/kg/injection, schedule: Q04DX003 (ip), vehicle: sodium bicarbonate",93 % of control and 124 % of control
same,T/C,"dose: 40.0 mg/kg/injection, schedule: Q04DX003 (ip), vehicle: sodium bicarbonate",156 % of control
COc1cc(NS(C)(=O)=O)ccc1Nc1c2ccccc2nc2ccccc12,T/C,[10],161 % of control
same,T/C,[11],205 % of control
COc1cc([C@@H]2c3cc4c(cc3[C@@H](OC3OC5CO[C@@H](c6cccs6)OC5C(O)C3O)[C@H]3COC(=O)[C@H]23)OCO4)cc(OC)c1O (stereo partly specified),T/C,[5],185 % of control
same,T/C,[6],151 % of control and 207 % of control
same,T/C,[7],264 % of control and 301 % of control
same,T/C,[8],269 % of control and 355 % of control
same,T/C,[9],337 % of control and 355 % of control
same,T/C,"dose: 160.0 mg/kg/injection, schedule: Q04DX003 (ip), vehicle: saline",337 % of control
CNc1nc(N(C)C)nc(N(C)C)n1,T/C,"dose: 19.4 mg/kg/injection, schedule: Q01DX014 (ip), vehicle: saline",101 % of control
same,T/C,"dose: 19.4 mg/kg/injection, schedule: Q01DX014 (sc), vehicle: saline",100 % of control and 105 % of control
same,T/C,"dose: 32.4 mg/kg/injection, schedule: Q01DX014 (sc), vehicle: saline",152 % of control
same,T/C,"dose: 54.0 mg/kg/injection, schedule: Q01DX014 (ip), vehicle: saline",150 % of control
same,T/C,"dose: 54.0 mg/kg/injection, schedule: Q01DX014 (sc), vehicle: saline",208 % of control
same,T/C,"dose: 90.0 mg/kg/injection, schedule: Q01DX014 (ip), vehicle: saline",181 % of control and 297 % of control
same,T/C,"dose: 90.0 mg/kg/injection, schedule: Q01DX014 (sc), vehicle: saline",213 % of control and 243 % of control
same,T/C,"dose: 150.0 mg/kg/injection, schedule: Q01DX014 (ip), vehicle: saline",45 % of control
[Cl][Pt+2][Cl].[NH-]C1CCC1.[NH2-],T/C,"dose: 1.04 mg/kg/injection, schedule: Q04DX003 (ip), vehicle: water",216 % of control
same,T/C,"dose: 1.73 mg/kg/injection, schedule: Q04DX003 (ip), vehicle: water",265 % of control
same,T/C,"dose: 2.88 mg/kg/injection, schedule: Q04DX003 (ip), vehicle: water",301 % of control
